pIC50: −log10 of the molar value.
What was measured:
[1] = target: C-C chemokine receptor type 1 (Homo sapiens) (UniProt P32246); assay: Displacement of [125I]MIP-1alpha from human recombinant CCR1 receptor at 10 uM after 120 mins by scintillation counting analysis relative to control
[2] = target: Endothelin-1 receptor (Homo sapiens) (UniProt P25101); assay: Displacement of [125I]-endothelin-1 from human recombinant ETA receptor at 1 uM after 120 mins by scintillation counting analysis relative to control
Chain of Endothelin-1 receptor (Homo sapiens) (P25101 whole entry): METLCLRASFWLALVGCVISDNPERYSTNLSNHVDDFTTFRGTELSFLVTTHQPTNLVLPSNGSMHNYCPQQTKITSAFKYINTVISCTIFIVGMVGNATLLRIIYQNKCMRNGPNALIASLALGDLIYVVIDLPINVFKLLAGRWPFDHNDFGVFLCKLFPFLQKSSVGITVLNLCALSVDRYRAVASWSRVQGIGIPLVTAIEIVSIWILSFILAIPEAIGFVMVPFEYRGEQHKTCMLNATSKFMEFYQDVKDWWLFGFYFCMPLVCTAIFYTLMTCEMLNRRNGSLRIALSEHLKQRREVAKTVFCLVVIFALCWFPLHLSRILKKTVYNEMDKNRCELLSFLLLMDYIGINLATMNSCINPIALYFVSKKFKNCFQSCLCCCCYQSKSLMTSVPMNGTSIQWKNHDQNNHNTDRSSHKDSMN

[3] = target: Kappa-type opioid receptor (Homo sapiens, UniProt P41145); assay: Displacement of [3H]U69593 from human kappa receptor at 1 uM after 60 mins by scintillation counting analysis relative to control
Chain of Kappa-type opioid receptor (P41145 whole entry): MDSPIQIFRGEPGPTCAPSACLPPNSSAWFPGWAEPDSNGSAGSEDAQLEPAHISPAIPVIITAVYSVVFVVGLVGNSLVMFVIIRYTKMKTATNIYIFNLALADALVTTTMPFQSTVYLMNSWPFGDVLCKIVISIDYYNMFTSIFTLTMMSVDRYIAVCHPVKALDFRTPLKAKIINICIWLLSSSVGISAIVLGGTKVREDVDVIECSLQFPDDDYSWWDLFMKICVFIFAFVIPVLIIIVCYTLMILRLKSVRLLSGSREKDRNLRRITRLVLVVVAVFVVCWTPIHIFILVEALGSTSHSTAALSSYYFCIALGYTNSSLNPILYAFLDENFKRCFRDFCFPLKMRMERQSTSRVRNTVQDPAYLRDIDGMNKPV

[4] = organism: Rattus norvegicus; assay: Displacement of [125I]alpha-dendrotoxin from rat brain voltage-gated K channel at 1 uM after 60 mins by scintillation counting analysis relative to control
[5] = target: 5-hydroxytryptamine receptor 3A (Homo sapiens, UniProt P46098); assay: Displacement of [3H]BRL 43694 from human recombinant 5-HT3 receptor after 120 mins by scintillation counting analysis
Chain of 5-hydroxytryptamine receptor 3A (P46098 whole entry): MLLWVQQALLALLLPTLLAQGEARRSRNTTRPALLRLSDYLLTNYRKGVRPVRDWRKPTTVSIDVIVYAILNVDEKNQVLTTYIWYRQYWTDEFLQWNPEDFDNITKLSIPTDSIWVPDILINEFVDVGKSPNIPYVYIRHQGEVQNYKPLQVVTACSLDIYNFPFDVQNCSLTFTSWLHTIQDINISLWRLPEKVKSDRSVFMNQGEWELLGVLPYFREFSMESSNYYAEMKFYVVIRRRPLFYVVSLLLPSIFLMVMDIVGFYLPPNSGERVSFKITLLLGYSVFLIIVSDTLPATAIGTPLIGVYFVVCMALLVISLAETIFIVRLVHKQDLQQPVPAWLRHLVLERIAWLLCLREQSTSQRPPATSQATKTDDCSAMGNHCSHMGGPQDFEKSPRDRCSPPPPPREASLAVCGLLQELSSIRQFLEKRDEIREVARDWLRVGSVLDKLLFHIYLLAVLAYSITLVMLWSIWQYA

[6] = target: Small conductance calcium-activated potassium channel (Rattus norvegicus, UniProt P70604+P70606+P70605); assay: Displacement of [125I]apamin from rat brain SkCa channel after 60 mins by scintillation counting analysis
[7] = target: Tyrosine-protein kinase JAK2 (Homo sapiens) (UniProt O60674); assay: Inhibition of recombinant GST-tagged human JAK2 catalytic domain (809 to 1153 residues) expressed in baculovirus expression system at 10 uM in presence of ATP relative to control
Chain of Tyrosine-protein kinase JAK2 (Homo sapiens) (O60674 whole entry, the tested form may be a part): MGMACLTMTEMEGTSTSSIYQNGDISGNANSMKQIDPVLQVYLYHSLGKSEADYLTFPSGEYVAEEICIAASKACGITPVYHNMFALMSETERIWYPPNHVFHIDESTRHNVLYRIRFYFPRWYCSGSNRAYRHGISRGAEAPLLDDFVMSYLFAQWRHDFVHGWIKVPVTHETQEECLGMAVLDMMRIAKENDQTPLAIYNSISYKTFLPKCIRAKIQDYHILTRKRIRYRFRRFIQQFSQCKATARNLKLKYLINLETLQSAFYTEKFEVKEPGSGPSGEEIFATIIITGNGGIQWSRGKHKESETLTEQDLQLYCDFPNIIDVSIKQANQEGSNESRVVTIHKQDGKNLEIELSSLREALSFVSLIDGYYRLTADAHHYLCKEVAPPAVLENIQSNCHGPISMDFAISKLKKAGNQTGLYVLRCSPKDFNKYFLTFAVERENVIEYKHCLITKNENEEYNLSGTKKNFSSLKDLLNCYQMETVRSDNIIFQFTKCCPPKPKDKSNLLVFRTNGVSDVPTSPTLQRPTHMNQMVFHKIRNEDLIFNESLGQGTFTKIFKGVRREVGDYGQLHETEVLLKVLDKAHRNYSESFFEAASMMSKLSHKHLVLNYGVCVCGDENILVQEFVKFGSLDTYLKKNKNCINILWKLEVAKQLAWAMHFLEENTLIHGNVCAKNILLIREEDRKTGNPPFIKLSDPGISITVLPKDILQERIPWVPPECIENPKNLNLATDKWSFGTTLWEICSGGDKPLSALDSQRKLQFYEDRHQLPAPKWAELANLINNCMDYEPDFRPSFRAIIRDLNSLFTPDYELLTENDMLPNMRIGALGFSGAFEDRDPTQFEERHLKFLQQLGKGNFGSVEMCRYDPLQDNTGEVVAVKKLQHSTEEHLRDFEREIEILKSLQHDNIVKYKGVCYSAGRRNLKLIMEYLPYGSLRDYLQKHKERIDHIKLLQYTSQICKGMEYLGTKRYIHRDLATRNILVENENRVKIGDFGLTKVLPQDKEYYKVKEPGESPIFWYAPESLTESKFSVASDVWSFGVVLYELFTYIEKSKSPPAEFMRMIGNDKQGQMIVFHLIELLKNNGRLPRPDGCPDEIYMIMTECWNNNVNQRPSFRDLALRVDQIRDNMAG

[8] = target: Serine/threonine-protein kinase PLK3 (Homo sapiens) (UniProt Q9H4B4); assay: Inhibition of GST-tagged human PLK3 catalytic domain expressed in baculovirus expression system at 10 uM in presence of ATP relative to control
Chain of Serine/threonine-protein kinase PLK3 (Homo sapiens) (Q9H4B4 whole entry, looked up, the tested form may be a part): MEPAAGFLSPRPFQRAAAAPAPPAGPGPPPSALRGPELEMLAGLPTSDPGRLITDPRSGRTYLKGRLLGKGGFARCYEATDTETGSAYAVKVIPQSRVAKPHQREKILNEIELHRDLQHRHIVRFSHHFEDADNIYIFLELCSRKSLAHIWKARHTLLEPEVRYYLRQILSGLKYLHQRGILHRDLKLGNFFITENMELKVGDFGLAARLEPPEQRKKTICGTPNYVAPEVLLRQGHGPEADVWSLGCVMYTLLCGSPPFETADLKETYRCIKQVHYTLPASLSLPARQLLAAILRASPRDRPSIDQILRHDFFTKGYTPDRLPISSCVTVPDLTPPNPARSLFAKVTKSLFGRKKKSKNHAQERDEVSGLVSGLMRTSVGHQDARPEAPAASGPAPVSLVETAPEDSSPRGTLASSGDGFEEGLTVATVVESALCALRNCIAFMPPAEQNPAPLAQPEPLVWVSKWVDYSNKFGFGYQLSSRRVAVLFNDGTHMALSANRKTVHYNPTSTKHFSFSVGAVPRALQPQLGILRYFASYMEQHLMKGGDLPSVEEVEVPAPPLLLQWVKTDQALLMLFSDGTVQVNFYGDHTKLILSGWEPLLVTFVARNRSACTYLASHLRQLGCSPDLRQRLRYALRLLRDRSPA

[9] = target: T1, Cytochrome P450 2C8 (Homo sapiens, UniProt P10632); assay: Inhibition of CYP2C8 (unknown origin); type: ADME
T1 sequence (P10632 whole entry): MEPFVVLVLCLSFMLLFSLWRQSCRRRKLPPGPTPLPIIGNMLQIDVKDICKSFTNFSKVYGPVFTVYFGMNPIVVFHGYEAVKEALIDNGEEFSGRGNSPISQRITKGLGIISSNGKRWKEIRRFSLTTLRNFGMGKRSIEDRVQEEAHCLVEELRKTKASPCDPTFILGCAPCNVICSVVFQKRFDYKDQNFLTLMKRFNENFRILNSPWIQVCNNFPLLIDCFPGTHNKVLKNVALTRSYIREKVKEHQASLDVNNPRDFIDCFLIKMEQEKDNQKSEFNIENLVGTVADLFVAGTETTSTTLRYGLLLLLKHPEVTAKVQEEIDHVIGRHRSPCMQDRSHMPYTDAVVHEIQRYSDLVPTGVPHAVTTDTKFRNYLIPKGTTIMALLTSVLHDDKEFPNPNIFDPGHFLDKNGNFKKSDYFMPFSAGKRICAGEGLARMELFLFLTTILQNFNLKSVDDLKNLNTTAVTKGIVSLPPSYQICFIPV

[10] = target: Protein kinase C beta type (Homo sapiens) (UniProt P05771); assay: Inhibition of PKCbeta1 (unknown origin) at 10 uM in presence of ATP relative to control
Chain of Protein kinase C beta type (Homo sapiens) (P05771 2-671 limits assumed): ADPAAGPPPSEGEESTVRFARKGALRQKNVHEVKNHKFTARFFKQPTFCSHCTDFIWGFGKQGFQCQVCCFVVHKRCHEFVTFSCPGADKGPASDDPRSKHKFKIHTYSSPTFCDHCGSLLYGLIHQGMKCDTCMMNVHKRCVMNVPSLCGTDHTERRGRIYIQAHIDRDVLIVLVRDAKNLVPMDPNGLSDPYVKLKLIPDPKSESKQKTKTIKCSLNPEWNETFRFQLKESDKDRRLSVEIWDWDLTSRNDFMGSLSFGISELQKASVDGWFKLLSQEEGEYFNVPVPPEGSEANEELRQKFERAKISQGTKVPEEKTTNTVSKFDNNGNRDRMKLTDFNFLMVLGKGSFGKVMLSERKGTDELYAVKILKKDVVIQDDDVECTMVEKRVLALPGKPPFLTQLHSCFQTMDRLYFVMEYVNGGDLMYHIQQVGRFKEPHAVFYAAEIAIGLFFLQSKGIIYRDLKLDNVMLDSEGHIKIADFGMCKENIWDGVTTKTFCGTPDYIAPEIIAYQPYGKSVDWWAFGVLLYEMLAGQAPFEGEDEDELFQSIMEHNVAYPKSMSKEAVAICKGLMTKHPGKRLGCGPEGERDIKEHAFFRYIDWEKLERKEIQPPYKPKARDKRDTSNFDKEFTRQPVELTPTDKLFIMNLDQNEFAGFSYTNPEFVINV

Chain of C-C chemokine receptor type 1 (Homo sapiens) (P32246 whole entry): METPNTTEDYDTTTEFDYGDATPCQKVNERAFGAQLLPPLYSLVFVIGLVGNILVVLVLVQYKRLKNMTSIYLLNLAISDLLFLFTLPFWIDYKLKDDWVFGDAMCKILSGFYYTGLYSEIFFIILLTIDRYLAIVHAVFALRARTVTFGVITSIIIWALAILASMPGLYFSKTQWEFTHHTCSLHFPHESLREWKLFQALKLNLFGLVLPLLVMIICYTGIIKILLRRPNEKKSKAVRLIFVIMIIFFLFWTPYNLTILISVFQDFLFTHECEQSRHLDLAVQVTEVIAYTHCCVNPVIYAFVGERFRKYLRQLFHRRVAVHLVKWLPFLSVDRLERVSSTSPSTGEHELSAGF

CC(C)(C)NS(=O)(=O)c1ccc(-c2sc(C(=O)N[C@H]3C[C@H](C(=O)O)C3)nc2CC2CCCCC2)c2ccccc12
inhibition [1]: < 10% | inhibition [2]: < 10% | inhibition [3]: < 10% | inhibition [4]: < 10% | pIC50 [5]: 8.31 | IC50 [6]: 0.012 nM | inhibition [7]: 2% | inhibition [8]: -5% | INH [9]: 3.8 µM | inhibition [10]: -2%

From ChEMBL document CHEMBL4118122, “Identification and biological evaluation of thiazole-based inverse agonists of RORγt” (Bioorg Med Chem Lett, 2018)
